“Also recorded” adds a separate entry of the source. Like-named read-outs stand apart in the source and are kept apart here. Ends that are not written are not given here.

For assay [1], the system named is Ca^2+-induced relaxation of mesenteric resistance arteries. The experiment in a line: Inhibition of Ca2+-induced relaxation of mesenteric resistance arteries by antagonists or denervation. Further details: species or system rat. The settings on record: for Result (antagonist effect on Ca2+-induced relaxation): Table 3.
The next assay relates to CaR. The settings on record: cited from earlier work.
Assay [2] relates to voltage sensitive Ca^2+ channel. The settings on record: "in view of statements"; cited from earlier work.
Assay [3] concerns norepinephrine precontracted mesenteric resistance arteries (perivascular CaR). The assay is described as follows: Vasorelaxation of norepinephrine precontracted mesenteric resistance arteries. Further details: species or system rat. From the text:
Branch I and II mesenteric resistance arteries, internal diameter […], are isolated from the mesenteric arcade of male Wistar rats and placed in ice cold physiologic salt solution (PSS) of the following composition in mM: NaCl, 130-140; KCl, 4.7; MgSO4.7H2 O, 1.17; NaHCO3, 5-15; KH2 PO4, 1.15 and Na2 HPO4, 1.10, CaCl2, 1.0; HEPES, 50; and glucose, 5, with a pH of 7.4 when gassed with 95% air, 5% CO2.
After cleaning of fat and connective tissue, the arterial segments are denuded of endothelium by rubbing a human hair in and out of the lumen. The vessel segments are then mounted between a force transducer and translation stage of a wire myograph using tungsten wire and the PSS is warmed to 37° C. and gassed with 95% air, 5% CO2 to provide a pH of 7.4. The vessel segments are then stretched to a length which is equivalent to an internal diameter of […] and allowed to equilibrate for 30 minutes. The vessels are then exposed to […] norepinephrine for three 5 minute periods to induce reproducible contractile responses. […] The vessel is then washed and allow to relax to baseline.
To determine whether the test compound is a vasodilator, the vessel is again precontracted by the addition of […] norepinephrine, and after the force response reaches a steady state, the test compound is cumulatively added and the effect on force generation is determined. […] Ca^2+ receptor agonists that are found to be endothelium-independent vasodilators and whose dilator activity is blocked by quinacrine and sensory denervation are moved onto the tertiary in vivo blood pressure screen.
Mesenteric resistance arteries were precontracted with either 100 mM K^+ (in the presence of 1 μM phentolamine) or 5 μM norepinephrine and response to cumulative addition of NPS R831 (10 nM to 50 μM) determined.

For another assay, the system named is mean arterial pressure. The experiment in a line: Mean arterial pressure of conscious SHR and WKY rats after bolus administration. The assay is classed as in vivo, rat (SHR and WKY). The source says:
FIG. 12. Effect of bolus administration of 3 μmol/kg NPS R467 on mean arterial pressure (carotid artery catheter) of conscious SHR rats.
FIG. 13. Effect of bolus administration of 1 μmol/kg NPS R831 on mean arterial pressure (carotid artery catheter) of conscious SHR and WKY.
The initial studies assessed the effect of bolus administration of NPS R467 on mean arterial pressure of conscious rats of both strains.
As noted, one result of the studies in Example 1 was the identification of NPS R831 as a candidate compound for assessment of blood pressure lowering effects. A study was performed in which the effect of a bolus injection of NPS R831 on blood pressure of a single SHR and a single WKY rat were measured.

For the next assay, the system named is rat tail arteries. The following applies: cited from earlier work.
Assay [4] deals with mesenteric resistance arteries. The assay is described as follows: Isometric force/active stress of Ca2+-depleted mesenteric resistance arteries. Further details: species or system Wistar rat. The method, then:
In the course of studies designed to examine the hypothesis that the Ca^2+ force relationship of resistance arteries is altered in genetically hypertensive rats, it was discovered that physiologic concentrations of extracellular Ca^2+ affected the repeated contraction elicited by norepinephrine in Ca^2+ -free medium.
Mesenteric resistance arteries were isolated from Wistar rats; and intracellular Ca^2+ and isometric force were measured using a fura-based method and w ire myography (Bian, et aL, 1995b). Vessels were depleted of releasable Ca^2+ by repeated contraction with norepinephrine; and extracellular Ca^2+ was then cumulatively added back from 0.025-2.5 mmol/L in the presence of a n agonist. […] It was concluded that extracellular Ca^2+ limits force generation by depressing myofilament Ca^2+ sensitivity and decreasing intracellular Ca^2+ secondary to activation of a Ca^2+ -sensitive K^+ channel.

The next assay concerns the target T1, Ca^2+ channels (Rattus norvegicus, UniProt P22002).
T1 construct: voltage sensitive Ca^2+ channels present on smooth muscle; from tissue; host or cells: isolated mesenteric resistance arteries (rat)
The assay is described as follows: Relaxation of mesenteric arteries precontracted with 100 mM K+ (Ca2+ channel blocking activity). The source says: Prior studies have shown that the parathyroid CaR agonists of the NPS R467 class block voltage sensitive Ca^2+ channel at mid-micromolar concentrations. […] The rationale was based on the facts that (a) K^+ -induced contraction is the result of influx of Ca^2+ into the cell through voltage gated Ca^2+ channels, and (b) Ca^2+ -induced relaxation is not observed during K^+ depolarization. Thus, CaR agonist mediated relaxation observed during K^+ induced contraction would reflect Ca^2+ channel blocking activity while […] relaxation observed during norepinephrine-induced contraction (which results from both Ca^2+ release and Ca^2+ entry) would be a mixture of Ca^2+ receptor stimulated relaxation and Ca^2+ channel activity.
Mesenteric resistance arteries were precontracted with either 100 mM K^+ (in the presence of 1 μM phentolamine) or 5 μM norepinephrine and response to cumulative addition of NPS R831 (10 nM to 50 μM) determined. […] To determine that the high sensitivity component observed during norepinephrine-induced contraction is mediated by the perivascular CaR two additional studies are conducted.

The mark [5] stands for this setting: FIG. 16, 3 μM miconazole, 1 μM pentobarbital or 1 μM quinacrine, p<0.05.
The mark [6] stands for this setting: bolus injection, single SHR and single WKY.

T1 sequence (P22002 whole entry): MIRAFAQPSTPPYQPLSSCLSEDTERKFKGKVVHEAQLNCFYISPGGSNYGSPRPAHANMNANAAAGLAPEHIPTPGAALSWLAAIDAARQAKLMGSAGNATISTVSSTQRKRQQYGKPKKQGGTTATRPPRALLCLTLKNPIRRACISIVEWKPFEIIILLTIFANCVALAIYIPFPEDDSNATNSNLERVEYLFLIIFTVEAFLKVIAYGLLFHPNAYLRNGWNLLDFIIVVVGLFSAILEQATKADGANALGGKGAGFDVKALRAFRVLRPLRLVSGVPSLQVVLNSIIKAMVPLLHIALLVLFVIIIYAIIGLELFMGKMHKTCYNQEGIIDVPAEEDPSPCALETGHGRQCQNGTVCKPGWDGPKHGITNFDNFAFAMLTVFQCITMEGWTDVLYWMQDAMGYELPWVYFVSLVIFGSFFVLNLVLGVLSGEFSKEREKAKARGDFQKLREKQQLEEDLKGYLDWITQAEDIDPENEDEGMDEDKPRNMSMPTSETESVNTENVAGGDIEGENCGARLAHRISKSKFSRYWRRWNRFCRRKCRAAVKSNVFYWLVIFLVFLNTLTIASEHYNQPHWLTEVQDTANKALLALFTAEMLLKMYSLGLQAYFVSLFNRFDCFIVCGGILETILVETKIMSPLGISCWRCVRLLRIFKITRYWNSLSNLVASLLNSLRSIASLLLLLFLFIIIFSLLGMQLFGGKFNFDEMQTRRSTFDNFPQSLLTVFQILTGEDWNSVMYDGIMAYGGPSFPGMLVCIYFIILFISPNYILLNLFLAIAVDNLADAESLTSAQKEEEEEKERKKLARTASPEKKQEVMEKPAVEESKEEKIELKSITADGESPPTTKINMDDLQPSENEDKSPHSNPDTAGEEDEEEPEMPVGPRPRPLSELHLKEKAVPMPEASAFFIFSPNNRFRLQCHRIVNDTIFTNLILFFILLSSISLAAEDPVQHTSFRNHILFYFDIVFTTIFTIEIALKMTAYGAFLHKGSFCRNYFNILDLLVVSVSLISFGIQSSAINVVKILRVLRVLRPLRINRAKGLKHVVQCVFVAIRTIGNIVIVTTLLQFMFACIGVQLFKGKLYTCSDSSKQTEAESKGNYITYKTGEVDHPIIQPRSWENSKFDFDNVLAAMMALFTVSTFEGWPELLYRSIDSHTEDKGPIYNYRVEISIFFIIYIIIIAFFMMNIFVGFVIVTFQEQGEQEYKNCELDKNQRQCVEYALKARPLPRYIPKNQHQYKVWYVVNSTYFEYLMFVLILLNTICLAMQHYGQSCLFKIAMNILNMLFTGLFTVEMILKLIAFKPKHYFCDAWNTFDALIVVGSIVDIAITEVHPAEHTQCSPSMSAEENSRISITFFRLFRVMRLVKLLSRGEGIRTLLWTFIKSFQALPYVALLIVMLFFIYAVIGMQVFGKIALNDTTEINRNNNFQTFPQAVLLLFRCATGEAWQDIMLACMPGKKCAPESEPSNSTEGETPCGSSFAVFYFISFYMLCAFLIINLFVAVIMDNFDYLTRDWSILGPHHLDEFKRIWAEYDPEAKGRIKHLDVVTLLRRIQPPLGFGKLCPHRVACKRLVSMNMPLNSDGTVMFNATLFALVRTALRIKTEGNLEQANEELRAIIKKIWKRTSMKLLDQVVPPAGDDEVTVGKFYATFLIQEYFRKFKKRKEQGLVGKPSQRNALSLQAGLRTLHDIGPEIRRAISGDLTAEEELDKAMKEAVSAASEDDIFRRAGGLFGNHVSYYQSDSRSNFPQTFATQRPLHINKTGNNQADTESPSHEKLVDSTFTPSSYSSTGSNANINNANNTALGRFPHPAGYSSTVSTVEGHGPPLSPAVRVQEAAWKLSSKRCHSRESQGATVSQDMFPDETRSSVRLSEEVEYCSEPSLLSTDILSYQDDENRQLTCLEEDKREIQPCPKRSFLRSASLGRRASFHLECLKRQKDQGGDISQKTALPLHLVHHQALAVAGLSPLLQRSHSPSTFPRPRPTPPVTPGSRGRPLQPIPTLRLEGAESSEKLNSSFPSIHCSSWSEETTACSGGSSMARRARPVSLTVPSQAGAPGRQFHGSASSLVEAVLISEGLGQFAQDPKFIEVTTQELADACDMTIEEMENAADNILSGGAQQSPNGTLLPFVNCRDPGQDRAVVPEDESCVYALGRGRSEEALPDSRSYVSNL
T1 sequence (P54290 25-944 partner limits assumed): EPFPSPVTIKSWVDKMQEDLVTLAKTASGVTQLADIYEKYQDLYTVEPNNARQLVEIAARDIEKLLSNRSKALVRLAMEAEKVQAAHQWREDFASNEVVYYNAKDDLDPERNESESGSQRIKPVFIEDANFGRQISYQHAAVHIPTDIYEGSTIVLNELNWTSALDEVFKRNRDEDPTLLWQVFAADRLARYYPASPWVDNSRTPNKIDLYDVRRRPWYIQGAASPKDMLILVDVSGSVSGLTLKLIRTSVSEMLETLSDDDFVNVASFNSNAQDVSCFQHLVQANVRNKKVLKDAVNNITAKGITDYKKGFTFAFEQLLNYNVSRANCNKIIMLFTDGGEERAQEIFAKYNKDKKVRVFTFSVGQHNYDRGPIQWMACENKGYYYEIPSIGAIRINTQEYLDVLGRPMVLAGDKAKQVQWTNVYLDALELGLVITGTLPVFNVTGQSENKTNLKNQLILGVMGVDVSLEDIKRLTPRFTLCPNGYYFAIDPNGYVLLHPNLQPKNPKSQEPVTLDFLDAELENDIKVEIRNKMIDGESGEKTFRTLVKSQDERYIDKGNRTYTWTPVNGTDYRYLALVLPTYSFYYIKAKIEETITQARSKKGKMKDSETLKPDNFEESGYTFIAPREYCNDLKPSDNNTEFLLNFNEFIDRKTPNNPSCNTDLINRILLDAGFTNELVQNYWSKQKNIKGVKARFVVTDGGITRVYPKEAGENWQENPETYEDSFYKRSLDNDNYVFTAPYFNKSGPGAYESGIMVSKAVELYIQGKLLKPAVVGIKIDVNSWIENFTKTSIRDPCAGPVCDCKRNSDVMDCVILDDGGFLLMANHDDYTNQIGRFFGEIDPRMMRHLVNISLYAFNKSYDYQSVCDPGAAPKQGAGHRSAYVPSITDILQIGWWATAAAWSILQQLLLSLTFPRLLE
T1 sequence (P54290 945-1091 partner limits assumed): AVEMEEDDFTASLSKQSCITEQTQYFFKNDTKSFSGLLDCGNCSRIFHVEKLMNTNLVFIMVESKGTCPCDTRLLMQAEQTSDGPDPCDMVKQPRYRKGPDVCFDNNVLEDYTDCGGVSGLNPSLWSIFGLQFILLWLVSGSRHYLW

Consider `Oc1ccccc1` [phenol], for which the “effect on Ca2+-induced relaxation” value in assay [1] is “completely blocks and often reverses; also recorded: significantly inhibited; also recorded: completely inhibits”.

As to `CCCC(C)C1(CC)C(=O)NC(=O)NC1=O` (centres unmarked) [pentobarbital], the entries for the “effect on Ca2+-induced relaxation” value in assay [1], in assay [1] (5 mM Ca2+) and in assay [1] (Ca2+ 1.5-3 mM) were “significantly attenuated”, “significantly attenuated” and “completely antagonized”, respectively.

As for `COC(=O)[C@@H](N)CCCNC(=N)N[N+](=O)[O-]` [L-NAME], the figures for the “effect on Ca2+-induced relaxation” value in assay [1] (100 μM L-NAME) and in assay [1] (L-NAME pre-treatment) were “inhibited/reversed” and “partially inhibited”, respectively. Further, the “Result (antagonist effect on Ca2+-induced relaxation)” value (“Result” for short) in assay [1] is reported as “no effect”.

Consider `COc1ccccc1CN[C@H]1CCCN[C@H]1c1ccccc1` [CP99, 994], for which, in assay [1], the “Result” value is reported as “no effect”.

`Clc1ccc(COC(Cn2ccnc2)c2ccc(Cl)cc2Cl)c(Cl)c1` (centres unmarked) [miconazole]: the results for the “effect on Ca2+-induced relaxation” value in assay [1] (5 mM Ca2+), in assay [1] (Ca2+ 1.5-3 mM) and in assay [1] (setting [5]) were “significantly attenuated”, “completely antagonized” and “significantly attenuated”, respectively.

As to `COc1ccc2c(c1)c(CC(=O)O)c(C)n2C(=O)c1ccc(Cl)cc1` [indomethacin], the “Result” value in assay [1] (at 1.5 mM Ca2+) is “partial effect”.

As for `CSCC[C@H](NC(=O)[C@H](CC(C)C)NC(=O)CNC(=O)[C@H](Cc1ccccc1)NC(=O)[C@H](Cc1ccccc1)NC(=O)[C@H](CCC(N)=O)NC(=O)[C@H](CCC(N)=O)NC(=O)[C@@H]1CCCN1C(=O)CNC(=O)[C@H](CC(C)C)NC(=O)[C@H](CC(C)C)NC(=O)[C@H](Cc1ccc(O)cc1)NC(=O)CNC(=O)[C@H](C)NC(=O)[C@H](CO)NC(=O)[C@H](CC(N)=O)NC(=O)[C@H](CC(C)C)NC(=O)[C@@H](NC(=O)[C@H](Cc1c[nH]c2ccccc12)NC(=O)CN)[C@@H](C)O)C(N)=O` [galantide], in assay [1], the “Result” value is given as “no effect”.

Consider `CC(C)Oc1cccc(CC(=O)N2CCC[C@](CC[N+]34CCC(c5ccccc5)(CC3)CC4)(c3ccc(Cl)c(Cl)c3)C2)c1` [SRI40333], for which, in assay [1], the “Result” value is “no effect”.

Turning to `[La+3]` [La^3+], in the assay on CaR, the “activation of CaR” value was “activated”.

As for `COc1cccc([C@@H](C)NCCCc2ccccc2)c1` [NPS R467], the “concentration of non-selective channel effects” value in assay [2] was no less than 4 µM. Moreover, the “effect of TEA on relaxation induced by low range of the drug” value in assay [3] (10 mM TEA, 10's of nM drug) is “completely antagonized”. For the same molecule, the “effect of TEA on relaxation induced by higher concentration of the drug” value in assay [3] (TEA, higher concentration) is recorded as “not blocked by TEA”. Further, the “concentration causing a larger relaxation” value in assay [3] (biphasic relaxation, high range) was in the range of 3 to 10 µM. In addition, the “concentration inducing relaxation of similar extent to the Ca2+ relaxation” value in assay [3] (biphasic relaxation, low range) fell in the range of 50 to 300 nM. For the same molecule, the “concentration activating the perivascular Ca2+ receptor and inducing relaxation” value in assay [3] (interpretation consistent with data) lay in the range of 30 to 300 nM. The “time for development of blood pressure lowering effect” value with mean arterial pressure (bolus, both strains) fell in the range of 30 to 40 min. In addition, the “blood pressure lowering effect” value with mean arterial pressure (bolus, conscious rats, both strains) is “modest and slowly developing”.

Consider `NCCCNCCCCNCCCN` [spermine], for which the “activation of CaR” value with CaR is reported as “activated”.

For `C[C@@H]1O[C@@H](O[C@H]2C[C@@H](O)[C@]3(CO)[C@H]4[C@H](O)C[C@]5(C)[C@@H](C6=CC(=O)OC6)CC[C@]5(O)[C@@H]4CC[C@]3(O)C2)[C@H](O)[C@H](O)[C@H]1O` [ouabain], in the assay on rat tail arteries, the “effect of pre-treatment on Ca2+-induced relaxation of rat tail arteries” value is reported as “antagonized”.

As for `CN1[C@@H]2CC[C@H]1C[C@@H](O)C2` [tropine], the “Result” value in assay [1] is recorded as “no effect”.

For the molecule `Oc1ccc2c3c1O[C@H]1c4[nH]c5c(c4C[C@@]4(O)[C@@H](C2)N(CC2CC2)CC[C@]314)C[C@@]1(O)[C@H]2Cc3ccc(O)c4c3[C@@]1(CCN2CC1CC1)[C@H]5O4` [nor-binaltorphmine], the “Result” value in assay [1] was “no effect”.

For spantide II, the “Result” value in assay [1] is recorded as “no effect”.

For the molecule 4 Cl-D-Phe^6,Leu^17 -VIP, the “Result” value in assay [1] was “no effect”.

“CGRP (8-37): CGRP antagonist (VTHRLAGLLSRSGGVVKNNFVPTNVGSKAF; ends and bridges not checked; UniProt P06881 90-119, looked up, fragment)”: the “Result” value in assay [1] is on record as “no effect”.

With `[Gd+3]` [Gd^3+], the “activation of CaR” value in the assay on CaR was “activated”.

`CCN(CC)CCCC(C)Nc1c2ccc(Cl)cc2nc2ccc(OC)cc12` (centres unmarked) [quinacrine]: the “effect on Ca2+-induced relaxation” value in assay [1] (setting [5]) is given as “significantly attenuated”; in assay [1] (PLA2 blockade), “significantly attenuates”.

With charybdotoxin, the “effect on decrease in active stress induced by 1.6 and 2.5 mmol/L extracellular Ca2+” value in assay [4] was “inhibited”. In assay [1] (prior results, K / KCa channel blockade), the “effect on Ca2+-induced relaxation” value is reported as “antagonized”.

Turning to `COc1cccc([C@@H](C)NCCCc2ccccc2OC)c1` [NPS R831], in assay [3] (compared with parathyroid CaR system), the “potency in relaxing precontracted arteries vs activating the parathyroid CaR” value is “relaxes precontracted arteries with the same potency as it activates the parathyroid CaR system”. Besides, the “concentration of possibly perivascular CaR mediated component” value in assay [3] (norepinephrine-induced contraction) was “sub-micromolar concentrations”. In addition, in the assay with mean arterial pressure (setting [6]), the “blood pressure lowering effect” value is reported as “moderately rapid (within 5 min) blood pressure lowering effect in both strains” and the “onset of blood pressure lowering effect” value is on record as no more than 5 min. Also, on Ca^2+ channels (100 mM K+ (1 μM phentolamine) vs 5 μM norepinephrine, NPS R831 10 nM to 50 μM), the “shift of relaxation response during K+- vs norepinephrine-induced contraction” value was “significantly shifted to the right (less sensitive)”. The “concentration of Ca2+ channel blocking mechanism of action” value on Ca^2+ channels (K+ vs norepinephrine contraction) is recorded as “mid-μM concentrations”. Also, the IC50 on Ca^2+ channels (mesenteric arteries precontracted with 100 mM K+, read-out: IC50 for block of Ca2+ channels) was roughly 1.5 µM.

For the molecule `CC[N+](CC)(CC)CC` [TEA], in assay [1], the “effect on Ca2+-induced relaxation” value is reported as “completely inhibited; also recorded: antagonized”.

As for `CC(=O)N(C)C1(c2ccccc2)CCN(CCC[C@]2(c3ccc(Cl)c(Cl)c3)CCCN(C(=O)c3ccccc3)C2)CC1` [SR 142801], the “Result” value in assay [1] is recorded as “no effect”.

Take `CC(=O)NC1(c2ccccc2)CCN(CC[C@H](CN(C)C(=O)c2ccccc2)c2ccc(Cl)c(Cl)c2)CC1` [SR48968]: the “Result” value in assay [1] is “no effect”.

On to tin protoporphorin IX, for which, in assay [1], the “Result” value is “no effect”.

Take neomycin: the “activation of CaR” value in the assay on CaR was “activated”.

One may read the IC50 as the concentration that inhibits the measured activity by half.

Source of the values: patent US6184254A, “Methods of identifying modulators of perivascular sensory nerve Ca2+ receptors” (priority 1998, dated 2001).
